The source of these data is US12410152B2, “Oxazole and thioazole-type cullin ring ubiquitin ligase compounds and uses thereof” (Proxygen GmbH, priority 2019, dated 2025).

One test has as its system UBE2M mutant KBM7 cells. Nature of the test: cells. Format: cell-based. To be noted: for EC50: Homo sapiens, KBM-7, read-out: KBM7_UBE2M_mut. The method, then: (§1) KBM7 cells with the specified genetic backgrounds were grown in IMDM supplemented with 10% FBS and 1% penicillin/streptomycin (pen/strep). AsPC1, HCT116, NCI-H446 and 293T cells were grown in DMEM 10% FBS and 1% pen/strep. MV4; 11, Jurkat and Be (2) C cells were grown in RPMI 10% FBS 1% pen/strep. KBM7, AsPC1 and HCT116 cells expressing Cas9 were generated using the plasmid Lenti_Cas9_Blasti (Addgene #52962). The lentiviral plasmid lentiGuide-Puro (Addgene #52963) was used to express sgRNAs against the genes UBE2M (in KBM7-Cas9, AsPC1-Cas9 and HCT116-Cas9 cells), UBE2G1 (in KBM7-Cas9 cells) and […] (in KBM7-Cas9 cells). The lentiviral plasmid lentiGuide-Puro-IRES-mCherry (modified from Addgene #52963) was used to express sgRNAs against CUL4A (in KBM7-Cas9 cells). The lentiviral plasmid pLenti-PGK-Hygro-DEST-UBE2M was generated by Gateway cloning (empty destination vector Addgene #19066), and used to generate UBE2M^resc KBM7 cells. […]
(§2) Following this observation, it was rationalized that novel small molecule degraders can be identified in an unbiased manner, simply by searching for compounds that lose activity in the absence of UBE2M. 2000 small molecules, mostly of unknown function/target, were tested for their antiproliferative effects in human leukemia cells (KBM7). These cells were either transduced with a control sgRNA (KBM7WT), or with an sgRNA targeting UBE2M, leading to a hypomorph (deletion of six amino acids) with a functional impairment (UBE2Mmut).
(§3) Finally, a total of structurally similar analogs was tested to unravel structure-activity relationship of the identified molecules. To that end, their anti-cancer activity was assayed in WT cells, as well as KBM7 cells deficient in genes identified in the genome-wide CRISPR screens (UBE2M, CUL4B, UBE2G1). Moreover, the compounds were also tested in AsPC1 pancreatic cancer cells (WT or UBE2Mmut), MV4; 11 and Jurkat leukemia cells, Be (2) C neuroblastoma cells, and NCI-H446 lung cancer cells (Table 3 at the end of this document)
(§4) KBM7^WT, mutant KBM7 clones (UBE2M^mut, UBE2M^resc, UBE2G1^mut CUL4A^mut, CUL4B^mut), and 3-day doxycycline pretreated KBM7^iCas9_sgDDB1 cells were seeded at a cell density of 50,000 cells/mL in 96-well plates with DMSO or drug, in triplicates. Drugs used: IC020772.1/IC020772.1X, IC021313.2/IC021313.2X, T6938051/T6938051X or THZ531. Cells were treated for 3 days, after which cell viability was assessed according to manufacturer's protocol (CellTiter Glo, Promega G7570). Survival curves and EC50 values were calculated by best-fit analysis of the log 10 drug concentration to fold change of drug-treated cells over DMSO-treated cells. All survival assays included technical triplicates per sample, per experiment.

The next test deals with KBM7 CUL4Bmut cells. Nature of the test: cells. It is filed as cell-based. To be noted: Homo sapiens, KBM-7, read-out: KBM7_CUL4B_mut. As for the experimental part: as §1, §3, §4
The subject of the next test is KBM7 WT cells. Nature of the test: cells. To be noted: for EC50: Homo sapiens, KBM-7, read-out: KBM7_WT; for effect on KBM7 cells in dose-ranging viability assays: WT KBM7, 3-day treatment. Format: cell-based. As for the experimental part: as §1, §3, §4
For another test, the system named is KBM7 UBE2G1mut cells. Nature of the test: cells. Format: cell-based. To be noted: Homo sapiens, KBM-7, read-out: KBM7_UBE2G1_mut. The method, then:
as §1, §3, §4

Another test deals with T1, cyclin K (CCNK) (Homo sapiens, UniProt Q16531+Q9NYV4).
T1 construct: endogenous in cells; host or cells: KBM7 cells (WT and UBE2M/CUL4B/UBE2G1 mutant clones)
In words: CCNK destabilization/degradation (expression proteomics and Western blot). To be noted: for rescue of drug-induced CCNK degradation by pretreatment: 30 min pretreatment before IC020772.1 (2.5 μM, 5h), 1 μM carfilzomib, 1 μM MLN4924, 10 μM TAK-243, 1 μM THZ531. It is filed as cell-based. The method, then:
(§5) The hypomorphic phenotype of the mutated UBE2M allele in KBM7 cells (KBM7 UBE2M^mut cells) was assessed. In this regard, CRISPR/Cas9-induced mutation of UBE2M inactivated CRL activity including CRL4^CRBN and CRL2^VHL. […] Additionally, CCNK destabilization by all three compounds was validated via time-resolved immunoblots wherein CCNK degradation was evident after two hours (FIG. 19c).
(§6) Subsequently, a total of 53 structurally related analogue compounds in dose-ranging viability assays in KBM7 wildtype- and UBE2M^mut cells was tested to develop a structure-activity relationship for the assayed compounds. This informed on sites amenable for derivatization of analogs (FIG. 20a), and also to the identification of structurally similar small molecules with no measurable activity that are thus suited negative controls. […] CRL activity-dependent degradation of CCNK could be rescued by pharmacologic NAE inhibition and by blocking the ubiquitin activating enzyme UBA1, particularly by pretreating the cells with 1 μM carfilzomib (Selleckchem, S2853), 1 μM MLN4924 (Selleckchem, S7109), 10 μM TAK-243 (MedChemExpress, HY-100487) or 1 μM THZ531 (MedChemExpress HY-103618) (FIG. 19d). Furthermore, treatment with the selective covalent CDK12/13 inhibitor THZ531, which binds to the ATP binding pocket of CDK12/13, rescued CCNK degradation (FIG. 19d) indicating the role of the active site of CDK12/13 for CRL activity-dependent CCNK degradation by the identified compounds (FIG. 19d).
(§7) PBS-washed cell pellets were lysed in 50 mM Tris pH 7.9, 8M Urea and 1% CHAPS and incubated with shaking at 4° C. for at least 30 min. 20 μg of supernatants were run and transferred for detection. Antibodies used: CUL1 (Santa Cruz Biotechnology, sc-1276), CUL2 (Sigma-Aldrich, SAB2501565-100), CUL3 (Cell Signaling Technology, 2759), CUL4A (Cell Signaling Technology, 2699S), CUL4B (Proteintech, 12916-1-AP), CUL5 (Santa Cruz Biotechnology, sc-373822), UBE2M (Santa Cruz Biotechnology, sc-390064), DDB1 (Cell Signaling Technology, 5428S), CCNK (Bethyl, A301-939A), CDK12 (Cell Signaling Technology, 11973S), CDK13 (Bethyl, A301-458A), RBM39 (1:500, Santa Cruz Biotechnology sc-376531), V5 (Cell Signaling Technology, 13202), Ubiquityl-Histone H2A (K119) (Cell Signaling, 8240-20). ACTIN (Sigma-Aldrich, A5441), VINCUL1N (Santa Cruz Biotechnology, sc-25336). Secondary antibodies anti-mouse/rabbit/goat (Jackson ImmunoResearch 115-035-003, 111-035-003 and 705-035-003).
(§8) Comparison of overall proteome-wide changes in KBM7 cells treated with IC020772.1 (2.5 μM), IC021313.2 (7 μM) or T6938051 (3.5 μM) for 5 h and 12h, using quantitative proteomics based on isobaric tagging.

Test [1] relates to T2, cyclin K (CCNK) (Homo sapiens).
T2 construct: endogenous in cells; host or cells: KBM7 cells (WT and UBE2M/CUL4B/UBE2G1 mutant clones)
The description is as above. Format: cell-based. As to conditions: wild-type KBM7 cells. The method, then:
as §5, §6, §7, §8

Test [2] relates to KBM7 WT and UBE2Mmut cells. In words: Primary phenotypic screen, differential viability KBM7 WT vs UBE2M mutant. Format: cell-based, human. To be noted: 10 μM and 500 nM, 3 days. As for the experimental part: as §2
KBM7^WT and UBE2M^mut cells were treated with a compound library (2000 cytotoxic diverse small-molecules, mostly of unknown function/target). Briefly, the screening was divided in three parts 1) primary screening, 2) follow up and 3) validation. During the primary screening, cells were treated with 10 μM and 500 nM of every compound. […] After 3 days of treatment, cell viability was measured (CellTiter Glo, Promega). The screen was perform in 384-well plates (Corning 3712) and the reagent/compound dispensing system used was: Echo 520 Liquid Handler, Multidrop™ Combi Reagent Dispenser. Control compounds were included in several wells, in all the plates. Method for validation of IC021313.2, IC020822.1, IC020772.1, T6938051 as described above in (i).

The next test has as its target T3, DCAF15 (Homo sapiens, UniProt Q66K64).
T3 construct: expressed in transfected cells; host or cells: 293T cells, DCAF15 knocked out, additionally transduced with LgBit
In words: DCAF15 stabilization, live-cell HiBit/LgBit bioluminescence screen. To be noted: 10 μM, 293T cells expressing HiBit-DCAF15. It is filed as cell-based. The text has this:
Subsequently, in this context, the E3 ligase substrate receptor (SR) stabilization approach was employed in order to identify novel chemical matter that can bind and chemically re-program the substrate receptor DCAF15. To be able to screen a collection of around 8000 small-molecules, a cellular system was developed that enabled monitoring of DCAF15 levels in live cells in multi-well format. To that end, DCAF15 was first knocked out in 293T cells via CRISPR/Cas9 technology. Then, DCAF15 was stably expressed as a HiBit® fusion protein in these cells. After further transducing these cells with LgBit, this allowed live-cell tracing of DCAF15 levels in 384 well format by measuring bioluminescence (FIG. 13).
In brief, cells were seeded at a concentration of 250′000 cells/ml in DMEM+10% FCS+25 mM Hepes. The luciferase substrate Endurazine was added at concentrations recommended by the manufacturer. Small-molecules were added at a concentration of 10 μM, and their effect on DCAF15 levels was assayed by continuous bioluminescent imaging (measurements were taken every 120 minutes). In total, 8000 compounds were tested.
The known DCAF15 molecular glue indisulam was used as a positive control. In brief, indisulam is known to act as a DCAF15-dependent molecular glue that binds DCAF15 and induced proximity between DCAF15 and RBM39, leading to the degradation of the latter. […]

T1 sequence (O75909 whole entry partner): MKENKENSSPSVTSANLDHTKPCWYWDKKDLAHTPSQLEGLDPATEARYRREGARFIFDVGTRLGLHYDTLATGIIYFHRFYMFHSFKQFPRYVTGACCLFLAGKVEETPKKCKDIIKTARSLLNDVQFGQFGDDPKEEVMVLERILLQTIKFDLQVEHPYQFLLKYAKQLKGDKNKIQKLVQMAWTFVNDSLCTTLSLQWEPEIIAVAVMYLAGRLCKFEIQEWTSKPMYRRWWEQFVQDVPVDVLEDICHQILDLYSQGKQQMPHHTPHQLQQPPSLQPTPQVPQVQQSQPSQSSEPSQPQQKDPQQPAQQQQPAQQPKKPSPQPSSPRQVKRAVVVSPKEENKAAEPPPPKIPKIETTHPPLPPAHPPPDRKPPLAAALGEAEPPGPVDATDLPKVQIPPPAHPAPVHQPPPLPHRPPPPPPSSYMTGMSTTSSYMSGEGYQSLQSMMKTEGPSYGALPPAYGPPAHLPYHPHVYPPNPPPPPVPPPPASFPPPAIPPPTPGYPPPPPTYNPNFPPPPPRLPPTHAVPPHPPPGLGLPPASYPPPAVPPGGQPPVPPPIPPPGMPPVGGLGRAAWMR
T1 sequence (Q9NYV4 whole entry): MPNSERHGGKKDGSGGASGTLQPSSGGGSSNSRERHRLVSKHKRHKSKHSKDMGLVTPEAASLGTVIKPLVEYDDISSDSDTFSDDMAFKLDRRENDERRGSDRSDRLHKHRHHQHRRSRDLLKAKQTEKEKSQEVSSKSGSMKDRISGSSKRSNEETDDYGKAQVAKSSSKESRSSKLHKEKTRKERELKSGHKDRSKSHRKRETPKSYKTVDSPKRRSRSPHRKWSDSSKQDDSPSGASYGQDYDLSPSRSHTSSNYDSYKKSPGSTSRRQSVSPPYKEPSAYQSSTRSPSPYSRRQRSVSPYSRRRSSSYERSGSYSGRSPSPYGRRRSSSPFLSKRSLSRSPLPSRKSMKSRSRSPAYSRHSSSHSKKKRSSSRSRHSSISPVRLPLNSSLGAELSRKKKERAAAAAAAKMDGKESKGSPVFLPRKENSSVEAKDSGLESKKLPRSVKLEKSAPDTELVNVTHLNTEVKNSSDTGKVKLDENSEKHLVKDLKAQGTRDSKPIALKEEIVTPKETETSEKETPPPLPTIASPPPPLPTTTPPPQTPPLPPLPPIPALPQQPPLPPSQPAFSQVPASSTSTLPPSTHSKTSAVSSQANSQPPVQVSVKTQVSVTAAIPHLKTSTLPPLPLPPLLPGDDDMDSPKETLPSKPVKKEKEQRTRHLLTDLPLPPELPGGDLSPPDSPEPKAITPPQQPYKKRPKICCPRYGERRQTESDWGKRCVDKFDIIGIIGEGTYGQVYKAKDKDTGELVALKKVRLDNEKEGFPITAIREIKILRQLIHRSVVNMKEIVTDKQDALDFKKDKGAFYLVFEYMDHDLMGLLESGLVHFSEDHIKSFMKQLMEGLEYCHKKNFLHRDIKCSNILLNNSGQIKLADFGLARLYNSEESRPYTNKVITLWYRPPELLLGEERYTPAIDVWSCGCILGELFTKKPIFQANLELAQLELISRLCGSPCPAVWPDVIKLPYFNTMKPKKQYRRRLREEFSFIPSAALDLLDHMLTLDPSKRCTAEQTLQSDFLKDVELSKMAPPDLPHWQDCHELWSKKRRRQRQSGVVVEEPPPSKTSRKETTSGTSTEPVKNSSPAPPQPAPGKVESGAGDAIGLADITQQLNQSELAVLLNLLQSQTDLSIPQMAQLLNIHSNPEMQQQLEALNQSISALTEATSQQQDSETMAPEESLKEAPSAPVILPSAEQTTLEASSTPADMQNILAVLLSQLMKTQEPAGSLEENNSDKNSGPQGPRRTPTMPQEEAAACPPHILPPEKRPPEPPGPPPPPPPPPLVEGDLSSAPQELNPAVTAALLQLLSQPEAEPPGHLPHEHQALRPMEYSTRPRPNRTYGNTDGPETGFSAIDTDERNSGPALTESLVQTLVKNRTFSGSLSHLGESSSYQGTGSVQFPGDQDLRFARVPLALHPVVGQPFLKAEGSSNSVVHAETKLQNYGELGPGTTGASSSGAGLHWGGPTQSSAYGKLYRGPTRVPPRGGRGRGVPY
T1 sequence (Q16531 2-1140 limits assumed): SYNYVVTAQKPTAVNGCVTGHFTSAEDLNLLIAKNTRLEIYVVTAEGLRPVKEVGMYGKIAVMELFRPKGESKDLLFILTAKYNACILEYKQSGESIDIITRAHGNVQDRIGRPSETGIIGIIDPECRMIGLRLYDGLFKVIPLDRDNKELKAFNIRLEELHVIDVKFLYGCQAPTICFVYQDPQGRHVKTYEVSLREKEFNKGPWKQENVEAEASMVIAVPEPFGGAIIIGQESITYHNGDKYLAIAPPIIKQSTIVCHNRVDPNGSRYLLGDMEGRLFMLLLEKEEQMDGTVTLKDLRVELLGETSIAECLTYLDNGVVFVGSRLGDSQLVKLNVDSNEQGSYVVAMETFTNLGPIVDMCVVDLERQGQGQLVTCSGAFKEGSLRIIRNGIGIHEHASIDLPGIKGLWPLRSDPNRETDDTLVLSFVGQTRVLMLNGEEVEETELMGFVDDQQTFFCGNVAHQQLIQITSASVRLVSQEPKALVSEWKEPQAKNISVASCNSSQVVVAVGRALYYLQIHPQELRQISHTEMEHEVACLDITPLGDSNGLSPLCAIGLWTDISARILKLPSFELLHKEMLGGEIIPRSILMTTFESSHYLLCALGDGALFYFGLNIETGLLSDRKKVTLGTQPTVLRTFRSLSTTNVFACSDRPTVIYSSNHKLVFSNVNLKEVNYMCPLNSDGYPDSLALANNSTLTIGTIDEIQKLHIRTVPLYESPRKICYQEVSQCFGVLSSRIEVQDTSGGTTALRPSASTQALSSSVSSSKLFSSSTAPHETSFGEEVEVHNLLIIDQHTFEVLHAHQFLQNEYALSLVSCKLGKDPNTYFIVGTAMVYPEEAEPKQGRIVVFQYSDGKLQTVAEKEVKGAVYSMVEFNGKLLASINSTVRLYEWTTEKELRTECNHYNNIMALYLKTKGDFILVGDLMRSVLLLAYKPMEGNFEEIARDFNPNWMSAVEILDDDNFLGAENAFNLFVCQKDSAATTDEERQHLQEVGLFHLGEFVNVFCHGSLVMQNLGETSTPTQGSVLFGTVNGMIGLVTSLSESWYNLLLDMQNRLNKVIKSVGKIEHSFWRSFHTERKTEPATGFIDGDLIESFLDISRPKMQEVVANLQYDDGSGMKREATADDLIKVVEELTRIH
T1 sequence (Q13620 whole entry partner): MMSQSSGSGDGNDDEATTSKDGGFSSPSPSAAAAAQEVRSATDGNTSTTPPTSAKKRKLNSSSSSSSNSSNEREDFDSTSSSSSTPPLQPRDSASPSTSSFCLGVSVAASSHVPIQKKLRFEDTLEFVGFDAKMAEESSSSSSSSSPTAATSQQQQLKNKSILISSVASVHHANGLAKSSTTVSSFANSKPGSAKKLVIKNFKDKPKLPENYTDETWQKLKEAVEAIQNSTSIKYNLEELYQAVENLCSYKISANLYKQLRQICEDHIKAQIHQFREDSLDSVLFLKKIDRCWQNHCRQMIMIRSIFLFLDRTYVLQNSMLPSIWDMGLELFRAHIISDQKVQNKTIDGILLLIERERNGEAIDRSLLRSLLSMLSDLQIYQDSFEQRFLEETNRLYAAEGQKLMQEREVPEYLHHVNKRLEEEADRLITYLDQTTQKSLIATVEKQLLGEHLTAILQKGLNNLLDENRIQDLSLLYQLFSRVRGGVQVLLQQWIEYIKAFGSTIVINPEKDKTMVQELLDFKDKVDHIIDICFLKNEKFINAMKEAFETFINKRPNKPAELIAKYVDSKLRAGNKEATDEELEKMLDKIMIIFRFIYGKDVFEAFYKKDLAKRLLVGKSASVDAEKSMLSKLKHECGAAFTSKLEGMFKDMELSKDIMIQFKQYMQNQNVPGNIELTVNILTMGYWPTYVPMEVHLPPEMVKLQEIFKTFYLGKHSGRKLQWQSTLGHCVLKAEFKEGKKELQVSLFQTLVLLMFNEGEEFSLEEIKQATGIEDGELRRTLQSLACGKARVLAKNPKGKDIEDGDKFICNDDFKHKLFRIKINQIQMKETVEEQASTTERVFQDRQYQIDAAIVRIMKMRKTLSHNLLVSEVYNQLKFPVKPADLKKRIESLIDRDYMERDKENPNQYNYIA
T1 sequence (P62877 whole entry partner): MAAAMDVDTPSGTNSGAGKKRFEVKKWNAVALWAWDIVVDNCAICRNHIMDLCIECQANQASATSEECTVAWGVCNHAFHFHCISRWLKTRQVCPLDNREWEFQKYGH
T2 sequence (O75909 whole entry partner): as the sequence (O75909 whole entry partner) above
T2 sequence (Q9NYV4 whole entry, further chain): as the sequence (Q9NYV4 whole entry) above
T2 sequence (Q16531 2-1140 limits assumed, further chain): as the sequence (Q16531 2-1140 limits assumed) above
T2 sequence (Q13620 whole entry partner): as the sequence (Q13620 whole entry partner) above
T2 sequence (P62877 whole entry partner): as the sequence (P62877 whole entry partner) above
T3 sequence (Q66K64 whole entry): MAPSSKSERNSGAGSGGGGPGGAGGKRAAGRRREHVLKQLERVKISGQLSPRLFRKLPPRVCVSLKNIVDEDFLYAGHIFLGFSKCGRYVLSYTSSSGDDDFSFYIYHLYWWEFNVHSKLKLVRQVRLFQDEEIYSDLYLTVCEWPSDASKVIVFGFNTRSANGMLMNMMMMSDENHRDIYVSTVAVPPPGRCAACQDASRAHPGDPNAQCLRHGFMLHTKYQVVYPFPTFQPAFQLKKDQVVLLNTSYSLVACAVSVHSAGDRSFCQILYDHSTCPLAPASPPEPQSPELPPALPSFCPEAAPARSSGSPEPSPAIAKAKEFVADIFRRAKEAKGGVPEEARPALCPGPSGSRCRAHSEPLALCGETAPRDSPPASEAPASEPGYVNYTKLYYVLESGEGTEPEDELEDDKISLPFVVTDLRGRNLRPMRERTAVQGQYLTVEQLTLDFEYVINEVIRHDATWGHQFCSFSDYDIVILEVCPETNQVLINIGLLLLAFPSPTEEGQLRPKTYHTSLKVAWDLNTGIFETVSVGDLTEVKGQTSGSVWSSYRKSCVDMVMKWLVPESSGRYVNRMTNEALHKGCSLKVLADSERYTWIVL

For the compound `O=C(CSc1nc2ccccc2[nH]1)Nc1ccc(Cl)cn1` [Compound Z54609541, 2-((1H-benzo[d]imidazol-2-yl)thio)-N-(5-chloropyridin-2-yl) acetamide], the EC50 with UBE2M mutant KBM7 cells was found to be 24.4 µM; with KBM7 CUL4Bmut cells, 11.9 µM; in the test with KBM7 WT cells, 2.41 µM; in the test on KBM7 UBE2G1mut cells, 7.6 µM. For `NS(=O)(=O)OC[C@@H]1C[C@@H](n2ccc3c(N[C@H]4CCc5ccccc54)ncnc32)C[C@@H]1O` [MLN4924, reference compound], the “rescue of drug-induced CCNK degradation by pretreatment” value (shortened to “rescue”) at cyclin K (CCNK) is given as “rescued”. On to `Cc1ccc(NC(=O)C2CSCN2C(=O)c2ccc(C)o2)cc1` (stereo not shown) [Compound T6938051X], for which the “effect on KBM7 cells in dose-ranging viability assays” value (“effect on KBM7 cells” below) with KBM7 WT cells is reported as “did not affect KBM7 cells”. Besides, in test [1], the CCNK destabilization entry is recorded as “failed to induce pronounced CCNK destabilization”. In the case of `CCCn1c2ccccc2c2nnc(SCC(=O)Nc3ccc(Cl)cn3)nc21` [IC020772.1X], in the test with KBM7 WT cells, the “effect on KBM7 cells” value is “did not affect KBM7 cells”. Besides, the CCNK destabilization result in test [1] was “failed to induce pronounced CCNK destabilization”. Turning to `NS(=O)(=O)OC[C@H]1C[C@@H](Nc2ccnc3cc(-c4cccc(SC(F)(F)F)c4)nn23)[C@H](O)[C@@H]1O` [TAK-243, reference compound], on cyclin K (CCNK), the “rescue” value is recorded as “rescued”. Consider `O=C(CSc1nc2ccccc2[nH]1)Nc1ccc(Br)cn1` [Compound Z201181756, 2-((1H-benzo[d]imidazol-2-yl)thio)-N-(5-bromopyridin-2-yl) acetamide], for which the EC50 with UBE2M mutant KBM7 cells worked out at 34.7 µM; in the test on KBM7 CUL4Bmut cells it was 12.6 µM; in the test with KBM7 WT cells, 1.41 µM; with KBM7 UBE2G1mut cells, 6.17 µM. As for `Cc1ncsc1-c1ccc([C@H](C)NC(=O)[C@@H]2C[C@@H](O)CN2C(=O)[C@@H](NC(=O)COCCCOCCNC(=O)C[C@@H]2N=C(c3ccc(Cl)cc3)c3c(sc(C)c3C)-n3c(C)nnc32)C(C)(C)C)cc1` [ARV-771, reference compound], the “anti-proliferative effect upon mutation of UBE2M” value with UBE2M mutant KBM7 cells (KBM7 UBE2M mutant vs WT) was “efficacy is significantly abrogated”.

With `O=C(CSc1nc2ccccc2[nH]1)Nc1ccccn1` [IC021313.2X], the “effect on KBM7 cells” value with KBM7 WT cells is given as “did not affect KBM7 cells”. The CCNK destabilization result in test [1] is reported as “failed to induce pronounced CCNK destabilization”. Regarding `CN(C)C/C=C/C(=O)Nc1ccc(C(=O)N2CCC[C@@H](Nc3ncc(Cl)c(-c4c[nH]c5ccccc45)n3)C2)cc1` [THZ531, reference compound], the “rescue” value at cyclin K (CCNK) is reported as “rescued”. The “effect on CCNK upon inactivation of DDB1, UBE2G1 and UBE2M” value at cyclin K (CCNK) (CRISPR-inactivated KBM7 cells) was “not affected”.

On to `O=C(CSc1nc2ccccc2[nH]1)Nc1ccc(Br)cn1` [IC020822.1], for which the “hit in differential viability screen” value in test [2] was “stood out in terms of fold-change significance”. With `NS(=O)(=O)c1ccc(S(=O)(=O)Nc2cccc3c(Cl)c[nH]c23)cc1` [indisulam, reference compound], at DCAF15, the “DCAF15 stabilization (relative luciferase signal over time)” value was “pronounced stabilization of DCAF15”.

On to `CC(C)C[C@H](NC(=O)[C@H](CCc1ccccc1)NC(=O)CN1CCOCC1)C(=O)N[C@@H](Cc1ccccc1)C(=O)N[C@@H](CC(C)C)C(=O)[C@@]1(C)CO1` [carfilzomib, reference compound], for which the “rescue” value on cyclin K (CCNK) is listed as “rescued”.
